Patent US20100227313A1, “Methods and Compositions for Determining Altered Susceptibility of HIV-1 to Protease Inhibitor Treatment” (priority 2007, published 2010)

Experiments:
HIV-1 = test: Resistance test vector (PHENOSENSE) phenotypic susceptibility assay, fold change in IC50, correlated with genotype (Fisher's Exact test, odds ratio); format: cell-based, human immunodeficiency virus type 1; settings: 2862 clinical samples; FC relative to wild-type (NL4-3); FIG. 1
Source text: See Petropoulos et al., 2000, Antimicrob. Agents Chemother. 44:920-928; U.S. Pat. Nos. 5,837,464 and 6,242,187. PHENOSENSE™ is a phenotypic assay that achieves the benefits of phenotypic testing and overcomes the drawbacks of previous assays.
PHENOSENSE™ can obtain results with only one round of viral replication, thereby avoiding selection of subpopulations of virus that can occur during preparation of viral stocks required for assays that rely on fully infectious virus.
A resistance test vector (“RTV”) can then be constructed by incorporating the amplified viral gene sequences into a replication defective viral vector by using any method known in the art of incorporating gene sequences into a vector. In one embodiment, restrictions enzymes and conventional cloning methods are used. See Sambrook et al., 2001, Molecular Cloning: A Laboratory Manual, Cold Spring Harbor Laboratory, 3rd ed., NY; and Ausubel et al., 1989, Current Protocols in Molecular Biology, Greene Publishing Associates and Wiley Interscience, NY. In a preferred embodiment, ApaI and PinAI restriction enzymes are used. Preferably, the replication defective viral vector is the indicator gene viral vector (“IGVV”). In a preferred embodiment, the viral vector contains a means for detecting replication of the RTV. Preferably, the viral vector contains a luciferase expression cassette.
The assay can be performed by first co-transfecting host cells with RTV DNA and a plasmid that expresses the envelope proteins of another retrovirus, for example, amphotropic murine leukemia virus (MLV). Following transfection, viral particles can be harvested from the cell culture and used to infect fresh target cells in the presence of varying amounts of anti-viral drug(s). The completion of a single round of viral replication in the fresh target cells can be detected by the means for detecting replication contained in the vector. In a preferred embodiment, the completion of a single round of viral replication results in the production of luciferase. By monitoring the amount of, e.g., luciferase activity in the presence of the varying amounts of antiviral drug(s), a resistance curve can be constructed by plotting luciferase activity versus drug concentration. The susceptibility of an HIV, or population of HIV, can be determined by measuring the concentration of antiviral drug at which the luciferase activity detected is half-maximal. This number, the IC50, provides a standard and convenient measure of drug resistance.
Patient derived segment(s) corresponding to the HIV protease and reverse transcriptase coding regions were amplified by the reverse transcription polymerase chain reaction method (RT PCR) using viral RNA isolated from viral particles present in the plasma or serum of HIV infected individuals as follows. Viral RNA was isolated from the plasma or serum using oligo-dT magnetic beads (Dynal Biotech, Oslo, Norway), followed by washing and elution of viral RNA. The RT PCR protocol was divided into two steps. A retroviral reverse transcriptase (e.g. Moloney MuLV reverse transcriptase (Roche Molecular Systems, Inc., Branchburg, N.J.; Invitrogen, Carlsbad, Calif.), or avian myeloblastosis virus (AMV) reverse transcriptase, (Boehringer Mannheim, Indianapolis, Ind.) was used to copy viral RNA into cDNA. The cDNA was then amplified using a thermostable DNA polymerase (e.g. Taq (Roche Molecular Systems, Inc., Branchburg, N.J.), Tth (Roche Molecular Systems, Inc., Branchburg, N.J.), PRIMEZYME™ (isolated from Thermus brockianus, Biometra, Gottingen, Germany)) or a combination of thermostable polymerases as described for the performance of “long PCR” (Barnes, W.M., 1994, Proc. Natl. Acad. Sci, USA 91, 2216 20) (e.g. Expand High Fidelity PCR System (Taq+Pwo), (Boehringer Mannheim. Indianapolis, Ind.); GENEAMP XL™ PCR kit (Tth+Vent), (Roche Molecular Systems, Inc., Branchburg, N.J.); or […] II®, Clontech, Palo Alto, Calif.)

HIV protease = settings: 2006, cited from earlier work; for effect of I47A mutation on susceptibility: de Mendoza et al.; for effect of L33F mutation in protease on susceptibility: Kozal et al.

In the case of COC(=O)N[C@H](C(=O)N[C@@H](Cc1ccccc1)[C@@H](O)CN(Cc1ccc(-c2ccccn2)cc1)NC(=O)[C@@H](NC(=O)OC)C(C)(C)C)C(C)(C)C [ATV, atazanavir], the “correlation of FC in susceptibility with the FC in susceptibility for DRV” value (HIV-1) is reported as “no correlation”.
For Cc1cccc(C)c1OCC(=O)N[C@@H](Cc1ccccc1)[C@@H](O)C[C@H](Cc1ccccc1)NC(=O)[C@H](C(C)C)N1CCCNC1=O [LPV, lopinavir], the “correlation of FC in susceptibility with the FC in susceptibility for DRV” value (HIV-1) is given as “no correlation”, the “effect of I47A mutation on susceptibility” value (HIV protease) is given as “reduced susceptibility” and the “effect of L33F mutation in protease on susceptibility” value (from here on “effect of L33F mutation in protease”) (HIV protease) is given as “correlate with resistance”.
For CC(C)c1nc(CN(C)C(=O)N[C@H](C(=O)N[C@@H](Cc2ccccc2)C[C@H](O)[C@H](Cc2ccccc2)NC(=O)OCc2cncs2)C(C)C)cs1 [ritonavir], the “effect of L33F mutation in protease” value (HIV protease) is listed as “correlate with resistance”.
For CC(C)(C)NC(=O)[C@@H]1C[C@@H]2CCCC[C@@H]2CN1C[C@@H](O)[C@H](Cc1ccccc1)NC(=O)[C@H](CC(N)=O)NC(=O)c1ccc2ccccc2n1 [saquinavir], the “effect of I47A mutation on susceptibility” value (HIV protease) is given as “hypersusceptibility” and the “effect of L33F mutation in protease” value (HIV protease) is given as “correlate with resistance”.
